# Entries after “also recorded” stand apart in the source; their conditions may differ.
# What was measured:
# Tsk-1 mice = assay: Tight skin-1 (Tsk-1) mouse model of systemic sclerosis; assay type: in vivo; conditions: for decrease of number of myofibroblasts / reduction of hypodermal thickening: 6 weeks; for reduction of hypodermal thickening: compared to untreated mice
# Description: The antifibrotic effects of the JNK inhibitor Compound JNKi-1 were tested in a murine tight skin-1 (Tsk-1) model of systemic sclerosis. In this model, a dominant mutation in the fibrillin 1 gene (Fbn1^Tsk+/−) leads to a systemic sclerosis-like disease with inflammatory infiltrates and massive fibrosis of the skin (Akhmetshina A, Venalis P, Dees C, Busch N, Zwerina J, Schett G, et al., Treatment with imatinib prevents fibrosis in different preclinical models of systemic sclerosis and induces regression of established fibrosis, Arthritis Rheum. 2009; 60(1):219-24).
# Male and female TSK-1 mice were used. Mice were fed a standard diet with water ad libitum. The room temperature was kept constant at 22° C. with a humidity of 60%.
# Compound JNKi-1 was dissolved in 0.5% carboxymethylcellulose (CMC)/0.25% Tween 80 in water. As vehicle control a solution of 0.5% CMC/0.25% Tween 80 in water was used. Imatinib mesylate was dissolved in 0.9% NaCl at a concentration of 50 mg/kg/day in a total volume of 100 μL.
# Groups of Tsk-1 mice (n=4/sex/group) were assigned to one of five treatment groups: • Untreated wildtype (Fbn1^Tsk−/−) group received 0.5% CMC/0.25% Tween 80 in water orally (PO) twice daily (BID). • Untreated Fbn1Tsk+/− mice received 0.5% CMC/0.25% Tween 80 in water orally BID. • Compound JNKi-1-treated Fbn1^Tsk+/− received 50 mg/kg orally BID. • Compound JNKi-1-treated Fbn1^Tsk+/− received 150 mg/kg orally BID. • Imatinib mesylate-treated Fbn1^Tsk+/− group received 50 mg/kg/day administered intraperitoneally (IP).
# Treatments with Compound JNKi-1 and control compound were started at Week 4. After 6 weeks of treatment, mice were sacrificed, and the antifibrotic effects from each treatment were analyzed.
# Antifibrotic effects were determined by measuring the dermal thickness and quantifying the numbers of myofibroblasts in the lesional skin. Dermal thickness was determined by measuring the distance from the epidermal/dermal border to the dermal/subdermal border in H & E-stained sections at four different sites. The number of myofibroblasts was quantified by staining for alpha smooth muscle actin (α-SMA) in paraffin-embedded sections. Data are expressed as mean±standard error of the mean (SEM). SPSS17.0 software and the Mann-Whitney-U-test were used for statistical analyses. A p-value of less than 0.05 was considered statistically significant.
# SKH-1 mice epidermis = assay: UVB-induced apoptosis (TUNEL) in skin of SKH-1 mice; assay type: in vivo, mouse; conditions: 75 mg/kg PO BID for 5 days before UVB 0.5 J/cm^2, vs vehicle
# Source text: Ultraviolet B (UVB) light is known to induce breaks in DNA (nicks) that can trigger the process of apoptosis, and these nicks can be labeled and visualized with terminal deoxynucleotidyl transferase dUTP nick end labeling (TUNEL). TUNEL technology identifies DNA breaks by labeling free 3′-OH terminals with modified (fluorescing) nucleotides in an enzymatic reaction that makes the damaged apoptotic cells fluoresce. This study was one of a series of pharmacology studies designed to determine the effects of the JNK inhibitor, Compound JNKi-1, on UVB-induced apoptosis in the skin of mice.
# Female SKH-1 mice (Charles River, n=17 total) were obtained at a body weight of 15 g to 20 g. Mice were housed in regular shoebox cages and allowed to become acclimated for a minimum of 1 week. Mice were fed Harlan Teklad (No. 7001) 4% mouse/rat diet and water ad libitum and were maintained on a 12-hour light/dark cycle. […]
# A Leica microscope with a CoolSNAP digital camera was used to obtain 5 random 20× magnification fluorescent images from five sections of skin epidermis and the number of TUNEL-positive green cells was counted to determine the average number of cells per animal and group (n=5).
# Statistical one-way analysis of variance (ANOVA) was performed followed by Bonferroni's multiple comparison test (Graph Pad Prism). The data were expressed as mean±standard error of the mean (SEM).
smiles,measurement,setting,value
"O[C@H]1CC[C@H](Nc2ncc3nc(Nc4c(F)cc(F)cc4F)n([C@H]4CCOC4)c3n2)CC1 [JNKi-1, 4-((9-((3S)-tetrahydro-3-furanyl)-8-((2,4,6-trifluorophenyl)amino)-9H-purin-2-yl)amino)-trans-cyclohexanol]",decrease of number of myofibroblasts,Tsk-1 mice; 50 mg/kg orally BID,68%±28%
same,reduction of hypodermal thickening,Tsk-1 mice; 50 mg/kg orally BID,67%±5%
same,decrease of number of myofibroblasts,Tsk-1 mice; 150 mg/kg orally BID,99%±9%
same,reduction of hypodermal thickening,Tsk-1 mice; 150 mg/kg orally BID,85%±7%
same,hypodermal thickening / myofibroblast counts (in words),Tsk-1 mice; 50 and 150 mg/kg orally BID,dose dependently reduced; also recorded: more pronounced; also recorded: dose-dependently reduce
same,number of TUNEL-positive cells in epidermis 24 hr post UV exposure,SKH-1 mice epidermis,can inhibit apoptotic cell death; also recorded: significantly (p<0.01) decreased

# Source: US8680076B2, “Methods of treatment, improvement and prevention using haloaryl substituted aminopurines” (Signal Pharmaceuticals, LLC, priority 2010, dated 2014)
